One data set relates to SARS-CoV-2. Format: cell-based. Conditions: 70% concentration, 30 min contact, 22 ± 2° C.
A further data set concerns B. subtilis (gram+). Conditions: reported value of antibiotic; cited from earlier work.
The test system of another data set is E. coli (gram−). Conditions: reported value of antibiotic; cited from earlier work.
Another data set concerns P. aeruginosa (gram−). Conditions: reported value of antibiotic; cited from earlier work.
The subject of data set [1] is C. albicans fungal strain. Conditions: reported value of antibiotic; cited from earlier work.
The test system of a further data set is S. aureus (gram+). Conditions: reported value of antibiotic; cited from earlier work.

Bounds are passed on as bounds.

For `CCO` [Ethanol], the “Virus Titer” value in the data set with SARS-CoV-2 is <0.7 log10 CCID50 of virus per 0.1 mL. In the data set on SARS-CoV-2 (vs virus control 4.3), the “LRV (log reduction value)” value is greater than 3.6. The “Toxicity (highest dilution of the endpoint titer where full (80-100%) cytotoxicity was observed)” value in the data set on Vero E6 cells is given as “None”.

Consider gentamycin, for which the MIC – broadly, the least concentration at which growth counts as inhibited – in the data set on B. subtilis (gram+) is 4 µg/mL; with E. coli (gram−) it was 8 µg/mL; in the data set on P. aeruginosa (gram−), 4 µg/mL; in data set [1] it was 2.5 µg/mL; with S. aureus (gram+), 10 µg/mL.

The record behind these values is US20240043618A1, “ANTIMICROBIAL COMPOSITIONS” (priority 2021, published 2024).
